Values of other authors, collected in EP1131101B1, “KHELLIN PREPARATION AND THE USE THEREOF FOR TOPICAL THERAPY” (priority 1998, dated 2000).

Key:
Plaque-Psoriasis = conditions: oral 100 mg Khellin then sun exposure
[1] = animal experiments; UVA phototherapy with Khellin compared with photochemotherapy with 8-MOP

**Q.** With `COc1c2occc2c(OC)c2c(=O)cc(C)oc12` [Khellin, 4,9-Dimethoxy-7-methyl-5H-furo[3,2-g][1] benzopyran-5-on] as the compound, how does the Photomutagenität (Bakterien) read?
**A.** Its Photomutagenität is “nur eine geringe Photomutagenität”.

**Q.** And the Mutagenität (Grünalgen)?
**A.** Its Mutagenität is “keine signifikante Mutagenität”.

**Q.** And the “auf die Behandlung ansprachen” value (Plaque-Psoriasis; 10 patients with plaque psoriasis)?
**A.** Its value is 80%.

**Q.** And the “für drei Jahre symptomfrei” value (Plaque-Psoriasis; of the responding patients)?
**A.** The value was 6 von 8.

**Q.** What about the “karzinogenes Risiko” value [1] of the same compound?
**A.** Its value is “deutlich geringeres karzinogenes Risiko”.
